Measurements published in US7906510B2, “Amide derivative and pharmaceutical composition containing the same” (Dainippon Sumito Pharma Co., Ltd., priority 2008, dated 2011).
Counter-ions that a name gives are not always drawn. Like-named read-outs stand apart in the source and are kept apart here.

Key:
5-HT4 receptor = target: T1, 5-HT4 receptor (Cavia porcellus, UniProt O70528); test: Serotonin 4 (5-HT4) receptor binding assay; design: species or system guinea pig; details: inhibition of specific binding of 0.1 nM [3H]-GR113808; guinea pig striatum membrane preparations; 37° C., 30 minutes; read-out: IC50
T1 construct: the mixture was suspended to give receptor membrane preparations; from tissue; host or cells: guinea pig (Slc-Hartley) brain striatum membranes
Procedure: 5-HT4 receptor binding assay and preparations of receptor membrane preparations were carried out according to a method of Grossman et al. [see British J. Pharmacol., (1993) 109, 618].
Slc-Hartley guinea pigs (body weight 300 to 400 g) were decapitated to remove brain rapidly, and striatum was isolated. To the obtained tissues were added fifteenfold of Hepes buffer (50 mM, pH7.4, 4° C.), and the mixture was homogenized by Teflon® homogenizer and centrifuged at 48,000×g (4° C.) for 15 minutes. To the resulting precipitate was added Hepes buffer (1 ml) to 30 mg by wet weight of tissues, and the mixture was suspended to give receptor membrane preparations.
0.1 nM [^3H]-GR113808 {chemical name: [1-[2-(methylsulfonylamino)ethyl]-4-piperidinyl]methyl 1-methylindole-3-carboxylate}, receptor membrane preparations, and Hepes buffer (50 mM, pH7.4, 4° C., 1 ml) containing test compounds or 30 μM serotonin were placed in an assay tube, and incubated at 37° C. for 30 minutes. On quenching the reaction, the mixture was rapidly filtered on whatman GF/B filter, which was presoaked in 0.1% polyethyleneimine for 1 hour, by using Brandel cell Harvester, and washed with ice-cooled 50 mM Tris-HCl (pH7.7, 4 ml) three times. To the filter after filtration was added ACS II scintillator, and then a radioactivity was determined by a liquid scintillation counter.
50% inhibition concentrations (IC50) were determined from inhibition rates of test compounds to specific bindings which were obtained by subtracting nonspecific bindings from total binding amounts of [^3H]-GR113808.

Male Slc-ddy mice = test: Mouse defecation assay; type: in vivo; design: key: −: No Effect; +: Moderately Improved (p<0.05); ++: Significantly Improved (p<0.01); details: 3 mg/kg orally; stool weight 30, 60 and 120 minutes after administration; Dunnett assay vs control
Procedure: Male Slc-ddy mice (body weight 25 to 30 g) were used and allowed to ingest food and water ad libitum until commencement of experiments.
A group of 25 mice was divided into 5 groups, which 5 mice each per group were respectively transferred to fasting cages to adjust to new environments for about 1 hour. Then, each mouse was orally administered 3 mg/kg suspension of a test compound in 0.5% tragacanth solution to measure each stool weight of each group 30, 60, and 120 minutes after oral administration.
Efficacies were evaluated by Dunnett assay between test compounds and control.

[1] = system: Male Slc-Hartley guinea pigs; test: Electrocardiographic assay for guinea pig; details: dose extending 5% of QTc; i.v. infusion for 15 minutes, anesthetized guinea pigs, ECG lead II
Procedure: (§1) Male Slc-Hartley guinea pigs were anesthetized to determine electrocardiogram (lead II) under artificial respiration. A drug solution was continuously and intravenously infused via cannula indwelled in cervical veins at a flow rate: 0.2 ml/kg/min for 15 minutes.

[2] = system: Male Slc-Hartley guinea pigs; details: guinea pig, in vivo, iv
Procedure: as §1

T1 sequence (O70528 whole entry): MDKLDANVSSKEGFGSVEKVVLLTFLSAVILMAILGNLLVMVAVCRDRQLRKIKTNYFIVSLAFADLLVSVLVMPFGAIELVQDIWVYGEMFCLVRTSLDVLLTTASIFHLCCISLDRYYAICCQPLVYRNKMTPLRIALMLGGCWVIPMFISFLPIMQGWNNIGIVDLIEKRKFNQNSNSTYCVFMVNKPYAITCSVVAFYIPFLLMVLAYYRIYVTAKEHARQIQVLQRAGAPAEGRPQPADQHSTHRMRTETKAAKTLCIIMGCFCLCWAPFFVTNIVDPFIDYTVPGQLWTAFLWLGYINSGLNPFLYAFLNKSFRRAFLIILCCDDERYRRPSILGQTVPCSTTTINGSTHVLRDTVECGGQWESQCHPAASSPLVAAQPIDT

Structure (SMILES)	IC50 (5-HT4 receptor)	melting point	Effect (Male Slc-ddy mice)	ED5% (mg/kg,i.v.) [1]	ED5% (mg/kg,i.v.) [2]
CCOc1cc(N)c(Cl)cc1C(=O)NC[C@H]1CN(CC2CCN(C(=O)N3CCC3)CC2)CCO1 [Example 208, (S)-4-amino-N-[{4-[(1-(1-azetidinecarbonyl)-4-piperidinyl)methyl]-2-morpholinyl}methyl]-5-chloro-2-ethoxybenzamide]	4.79 nM	166 to 168 °C			
CCOc1cc(N)c(Cl)cc1C(=O)NCC1CN(CC2CCN(C(=O)OC)CC2)CCO1 (centres unmarked) [Example 93]	9.36 nM	175 °C			
CCOc1cc(N)c(Cl)cc1C(=O)NC[C@H]1CN(CC2CCN(C(=O)N(C)C)CC2)CCO1 [Example 72]	9.04 nM	157 to 158 °C	++	>30 mg/kg	
CCOc1cc(N)c(Cl)cc1C(=O)NCC1CN(CC2CCN(C(=O)OC(C)(C)C)CC2)CCO1 (centres unmarked) (as salt: fumarate) [Example 4, 4-amino-N-[{4-[(1-(tert-butoxycarbonyl)-4-piperidinyl)methyl]-2-morpholinyl}-methyl]-5-chloro-2-ethoxybenzamide 1.5 fumarate]		167 to 169 °C			
CCOc1cc(N)c(Cl)cc1C(=O)NC[C@H]1CN(CC2CCN(C(=O)CO)CC2)CCO1 [Example 197]			++		>30 mg/kg
CCOc1cc(N)c(Cl)cc1C(=O)NC[C@H]1CN(CC2CCN(C(=O)N(C)OC)CC2)CCO1 [Example 205, (S)-4-amino-5-chloro-2-ethoxy-N-[{4-[(1-(N-methoxy-N-methylcarbamoyl)-4-piperidinyl)methyl]-2-morpholinyl}methyl]benzamide]		127 to 129 °C			
CCOc1cc(N)c(Br)cc1C(=O)NCC1CN(CC2CCN(C(=O)OC(C)(C)C)CC2)CCO1 (centres unmarked) (as salt: fumarate) [Example 11, 4-amino-5-bromo-N-[{4-[(1-(tert-butoxycarbonyl)-4-piperidinyl)methyl]-2-morpholinyl}methyl]-2-ethoxybenzamide 1.5 fumarate]		171 to 172 °C			
COc1cc(N)c(Cl)cc1C(=O)NC[C@H]1CN(CC2CCN(C(=O)CO)CC2)CCO1 (as salt: hydrobromid) (hydrate or solvate) [Example 220, (S)-4-amino-5-chloro-N-[{4-[(1-hydroxyacetyl-4-piperidinyl)methyl]-2-morpholinyl}methyl]-2-methoxybenzamide hydrobromide 2 hydrate]		215 to 216 °C (dec.)			
